One experiment concerns B16F10 (PgR-negative). Nature of the experiment: Cell cycle assay by flow cytometry (PI), B16F10. The format is cell-based, murine. The following applies: B16F10, 10 μM, 24 h. Here is the method:
(§1) To measure the cellular DNA content, cell cycle assay was carried out. In this assay, first cells were synchronized at early S-phase by double thymidine blocking. When cell confluency was reached around 25-30% in 60 mm dish, cells were treated with 2 mM thymidine, diluted in 10% FBS containing DMEM, for 18 h to block cells at early S-phase. To release the blocking, media was discarded and washed with 1×PBS. Then the cells were incubated with fresh cell culture media containing 10% FBS for 9 h. After releasing, second blocking was done with 2 mM thymidine containing media for 17 h. After second blocking cells were released by discarding the thymidine supplemented media and kept in fresh media. All the respective treatments for cell cycle study were done after 2 h of second release.
(§2) S-phase synchronized cells were either kept untreated or treated with compound 1 (10 μM) and 6c (10 μM) for 24 h. Cells from different treatment groups were harvested, washed with 1×PBS, and fixed with 70% ethanol and kept at −20° C. for overnight. Then the ethanol was removed and washed with 1×PBS. […] After incubation cells were collected by centrifugation, washed with 1×PBS, re-suspended in 500 μL 1×PBS, and data was recorded using flow cytometer (FACS Canto II, Becton-Dickinson, San Jose, Calif., USA) and data were analyzed with FACS Diva software. […]

The next experiment has as its system HUVEC. Nature of the experiment: Viability study in HUVEC cell (FIG. 7A). Format: cell-based, Human. The following applies: 48 h. Here is the method: 2 μM Doxorubicin (DOX) was taken as positive control. + indicates p<0.01.
T47D, MCF-7, MDA-MB-231 (human breast carcinoma), OVCAR-3 (Human ovary carcinoma), B16F10 (murine melanoma), HUVEC (Human umbilical vein endothelium) cells were purchased from the American Type Cell Culture (ATCC, USA) and CHO (Chinese hamster ovary), NIH-3T3 (murine embryo fibroblast) and COS-1 (Kidney fibroblast) cells were purchased from National Center for Cell Sciences (Pune, India). All cells were grown into mycoplasma free condition. […] All cells were grown up to 75-85% confluency after which cells were trypsinized, counted and seeded, in 96-well plates for cell viability studies, 6-well plates for apoptosis studies, 60 mm dish for cell cycle studies and in 25 cm^2 or 75 cm^2 tissue culture flasks for Western blot studies.
Cytotoxicity assay of the different compounds were carried out by using 3-(4,5-dimethylthiazol-2-yl)-2,5-diphenyltetrazolium bromide (MTT). […] Then the media was removed carefully, and the reduced MTT was dissolved in 1:1 (v/v) DMSO/Methanol and absorbance was measured using multimode reader (Synergy H1, BioTek). […]

For another experiment, the system named is MDA-MB-231. Nature of the experiment: MTT cytotoxicity assay, MDA-MB-231. Format: cell-based, human. The method, then:
(§3) All cells were grown into mycoplasma free condition. […] All cells were grown up to 75-85% confluency after which cells were trypsinized, counted and seeded, in 96-well plates for cell viability studies, 6-well plates for apoptosis studies, 60 mm dish for cell cycle studies and in 25 cm^2 or 75 cm^2 tissue culture flasks for Western blot studies. The primary stock of the cationic progesterone molecules were made in cell culture grade DMSO and from that secondary stock was prepared by serial dilution with cell culture grade DMSO. The final working concentrations were prepared by diluting the secondary stock in cell culture media keeping the DMSO concentration in working solution below 0.2% with respect to cell culture medium. […] For this assay, 12-18 h before treatment cells were plated in 96-well plate at 5000 cells/well density. […] After completion of the treatment, 10 μL of MTT solution (5 mg/mL) was added in each well and incubated for 4 h. Then the media was removed carefully, and the reduced MTT was dissolved in 1:1 (v/v) DMSO/Methanol and absorbance was measured using multimode reader (Synergy H1, BioTek). Results were represented as percentage of viability={[A550(treated cells)−background]/[A550(untreated cells)−background]}×100. The result was summarized and provided as IC50 table in Table 1.

The subject of a further experiment is T47D (PgR-positive). Nature of the experiment: Cell cycle assay by flow cytometry (PI), T47D. The following applies: 10 μM, 24 h. The format is cell-based, human. The method, then:
as §1, §2

The next experiment relates to COS-1. Nature of the experiment: MTT cytotoxicity assay, COS-1. The following applies: Chlorocebus aethiops, read-out: IC50 COS-1. The format is cell-based. The method, then: as §3
The subject of the next experiment is OVCAR-3. Nature of the experiment: MTT cytotoxicity assay, OVCAR-3. The format is cell-based. The following applies: Homo sapiens, read-out: IC50 OVCAR-3. Here is the method: as §3
The next experiment relates to B16F10. Nature of the experiment: MTT cytotoxicity assay, B16F10. Format: cell-based, murine. The method, then:
as §3

Experiment [1] deals with chick embryo vascularization. Nature of the experiment: Chick embryo angiogenesis (CEA) assay. The format is in vivo, chicken. The note with it: 20 μL, 5 μM, 4 h. The method, then:
FIG. 7B: In vivo chick embryo angiogenesis (CEA) assay. Vascular sprouting was imaged following 0 h (left panel) and 4 h (right panel) treatment with DMSO, 1 (20 μL, 5 μM) and 6c (20 μL, 5 μM). Damaged vessel is indicated by black arrow.
To measure the anti-angiogenic property chick embryo angiogenesis study was carried out. For this study, fertile chicken eggs were incubated at 37° C. humidified incubator. After four day of incubation, the […] of the eggs were cautiously removed using forceps. After that, the egg yolks were carefully treated with DMSO (20 μL; 0.1% DMSO in IX PBS), compound 1 (20 μL; 5 μM), and 6c (20 μL; 5 μM) for 4 h. Images were captured at 0 and 4 h of incubation with a stereomicroscope (Leica). Different angiogenic parameters were quantified using Angioquant software.

In a further experiment the test system is NIH-3T3. Description: MTT cytotoxicity assay, NIH-3T3. Format: cell-based, murine. The following applies: Mus musculus, read-out: IC50 NIH-3T3. Here is the method: as §3

Like-named read-outs stand apart in the source and are kept apart here.

Consider `CC(=O)[C@H]1CC[C@H]2[C@@H]3CCC4=CC(=O)CC[C@]4(C)[C@H]3CC[C@]12C` [Compound 1, Progesterone], for which the “total cell population in G2/M phase” value worked out at 19% in the experiment on B16F10 (PgR-negative) and 10% in the experiment on T47D (PgR-positive). Moreover, the “effect on cell growth” value in the experiment with HUVEC (2.5 μM or even 10 μM) is on record as “little to no effect”. Moreover, the 50% inhibitory concentration (IC50) with MDA-MB-231 (Homo sapiens, MDA-MB-231, MTT, 48 h continuous treatment, read-out: IC50 MDA-MB-231) is > 20 µM; in the experiment with COS-1 (COS-1, MTT, 48 h continuous treatment, non-cancer cell), > 20 µM; with OVCAR-3 (OVCAR-3, MTT, 48 h continuous treatment), > 20 µM; with B16F10 (Mus musculus, B16-F10, MTT, 48 h continuous treatment, read-out: IC50 B16F10) it was > 20 µM; in the experiment with NIH-3T3 (NIH3T3, MTT, 48 h continuous treatment, non-cancer cell), > 20 µM. In experiment [1], the “effect on blood vessels / vascularization network” value is on record as “either no effect or little increase in the vascularization network”.
Turning to `CCCCCCCCCC[N+](C)(CCCCCCCCCC)CCNC(=O)CCC(=O)O[C@@H](C)[C@H]1CCC2C3CCC4=CC(=O)CC[C@]4(C)C3CC[C@@]21C` (stereo partly drawn) [Compound 6c, N-decyl-N-(2-(4-((1S)-1-((10R,13S,17S)-10,13-dimethyl-3-oxo-2,3,6,7,8,9,10,11,12,13,14, 15,16,17-tetradecahydro-1H-cyclopenta[a]phenanthren-17-yl)ethoxy)-4-oxobutanamido)ethyl)-N-methyldecan-1-aminium chloride], the “total cell population in G2/M phase” value with B16F10 (PgR-negative) is listed as 33%; in the experiment with T47D (PgR-positive), 38%. Besides, in the experiment with HUVEC (Homo sapiens, 2.5 μM, read-out: inhibition of cell growth), the inhibition at 2.5 µM is 50%. Also, the IC50 in the experiment on MDA-MB-231 (Homo sapiens, MDA-MB-231, 48 h, read-out: IC50 MDA-MB-231, MTT, 48 h continuous treatment) was 6.67 ± 0.27 µM; in the experiment on MDA-MB-231 (read-out: IC50 MDA-MB-231, MTT, 48 h continuous treatment) it was 3.63 ± 0.16 µM; with COS-1 (COS-1, 48 h), > 20 µM; in the experiment with OVCAR-3 (OVCAR-3, 48 h) it was 4.48 ± 0.23 µM; with B16F10 (Mus musculus, B16-F10, 48 h, read-out: IC50 B16F10, MTT, 48 h continuous treatment), 3.63 ± 0.16 µM; in the experiment with B16F10 (read-out: IC50 B16F10, MTT, 48 h continuous treatment), 6.67 ± 0.27 µM. For the same compound, the IC50 with NIH-3T3 (NIH3T3, 48 h) was > 20 µM. Besides, the “effect on blood vessels / vascularization network” value in [1] is listed as “blood vessels were either significantly damaged or new blood vessel formation was delayed”.
